From ChEMBL document CHEMBL1201862, “PubChem BioAssay data set” (2004)
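Compound exposure: 48 hours, 5 concentrations, 96-well plates. GI50 is the concentration that inhibits growth by half.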 The source made the active and inactive calls. No stated cut-off is given here; in the data, active = GI50 up to about 1.1 µM and inactive = higher.

Experiments:
Assay in all cases: growth of human tumour cells (NCI), 48 h
MOLT-4 = test system: MOLT-4
SW-620 = test system: SW-620
HCC 2998 = test system: HCC 2998
RXF 393 = test system: RXF 393
KM-20L2 = test system: KM-20L2
A549 = test system: A549
EKVX = test system: EKVX
SK-MEL-5 = test system: SK-MEL-5
NCI-H23 = test system: NCI-H23
HT-29 = test system: HT-29
HCT-15 = test system: HCT-15
RXF 631 = test system: RXF 631
HOP-92 = test system: HOP-92
SK-OV-3 = test system: SK-OV-3
DMS-114 = test system: DMS-114
RPMI-8226 = test system: RPMI-8226
ACHN = test system: ACHN
IGROV-1 = test system: IGROV-1
SK-MEL-28 = test system: SK-MEL-28
UACC-62 = test system: UACC-62
SNB-78 = test system: SNB-78
SF-268 = test system: SF-268
786-0 = test system: 786-0
SK-MEL-2 = test system: SK-MEL-2
UACC-257 = test system: UACC-257
CAKI-1 = test system: CAKI-1
KM12 = test system: KM12
HOP-18 = test system: HOP-18
OVCAR-4 = test system: OVCAR-4
U-251 = test system: U-251
HCT-116 = test system: HCT-116
HL-60 = test system: HL-60
NCI-H460 = test system: NCI-H460
SN12C = test system: SN12C
K562 = test system: K562
OVCAR-3 = test system: OVCAR-3
COLO 205 = test system: COLO 205
M14 = test system: M14
SF-295 = test system: SF-295
NCI-H522 = test system: NCI-H522
SNB-19 = test system: SNB-19
OVCAR-5 = test system: OVCAR-5
TK-10 = test system: TK-10
OVCAR-8 = test system: OVCAR-8
Malme-3M = test system: Malme-3M
HOP-62 = test system: HOP-62
SNB-75 = test system: SNB-75
SF-539 = test system: SF-539
UO-31 = test system: UO-31
A498 = test system: A498
DMS-273 = test system: DMS-273
DLD-1 = test system: DLD-1
CCRF-CEM = test system: CCRF-CEM
LXFL 529 = test system: LXFL 529
LOX IMVI = test system: LOX IMVI
M19-MEL = test system: M19-MEL

Structure (SMILES): O=S(=O)(SCCCCSS(=O)(=O)c1ccc(Cl)cc1)c1ccc(Cl)cc1
- GI50 (MOLT-4): 2.73 µM (inactive)
- GI50 (SW-620): 9.46 µM (inactive)
- GI50 (HCC 2998): 18.7 µM (inactive)
- GI50 (RXF 393): 16.7 µM (inactive)
- GI50 (KM-20L2): 18 µM (inactive)
- GI50 (A549): 13.5 µM (inactive)
- GI50 (EKVX): 4.67 µM (inactive)
- GI50 (SK-MEL-5): 16.7 µM (inactive)
- GI50 (NCI-H23): 10.3 µM (inactive)
- GI50 (HT-29): 17.3 µM (inactive)
- GI50 (HCT-15): 13.4 µM
- GI50 (RXF 631): 8.2 µM (inactive)
- GI50 (HOP-92): 8.51 µM (inactive)
- GI50 (SK-OV-3): 15.3 µM (inactive)
- GI50 (DMS-114): 6.67 µM (inactive)
- GI50 (RPMI-8226): 4.39 µM (inactive)
- GI50 (ACHN): 16.3 µM (inactive)
- GI50 (IGROV-1): 5.2 µM (inactive)
- GI50 (SK-MEL-28): 17.8 µM (inactive)
- GI50 (UACC-62): 12.2 µM (inactive)
- GI50 (SNB-78): 18.6 µM (inactive)
- GI50 (SF-268): 10.5 µM (inactive)
- GI50 (786-0): 9.68 µM (inactive)
- GI50 (SK-MEL-2): 14.9 µM (inactive)
- GI50 (UACC-257): 16.6 µM (inactive)
- GI50 (CAKI-1): 12.7 µM (inactive)
- GI50 (KM12): 9.68 µM (inactive)
- GI50 (HOP-18): 13.6 µM (inactive)
- GI50 (OVCAR-4): 15.1 µM (inactive)
- GI50 (U-251): 8.36 µM (inactive)
- GI50 (HCT-116): 11 µM (inactive)
- GI50 (HL-60): 3.24 µM (inactive)
- GI50 (NCI-H460): 14.4 µM (inactive)
- GI50 (SN12C): 9.23 µM (inactive)
- GI50 (K562): 20 µM (inactive)
- GI50 (OVCAR-3): 14.7 µM (inactive)
- GI50 (COLO 205): 14.9 µM (inactive)
- GI50 (M14): 14.6 µM (inactive)
- GI50 (SF-295): 3.92 µM (inactive)
- GI50 (NCI-H522): 5.06 µM (inactive)
- GI50 (SNB-19): 10.2 µM (inactive)
- GI50 (OVCAR-5): 16.7 µM (inactive)
- GI50 (TK-10): 21.3 µM (inactive)
- GI50 (OVCAR-8): 12.2 µM (inactive)
- GI50 (Malme-3M): 15.4 µM (inactive)
- GI50 (HOP-62): 20.1 µM (inactive)
- GI50 (SNB-75): 11.4 µM (inactive)
- GI50 (SF-539): 12.4 µM (inactive)
- GI50 (UO-31): 9.04 µM (inactive)
- GI50 (A498): 16.6 µM (inactive)
- GI50 (DMS-273): 10.3 µM (inactive)
- GI50 (DLD-1): 13.8 µM (inactive)
- GI50 (CCRF-CEM): 1.85 µM (inactive)
- GI50 (LXFL 529): 12.2 µM (inactive)
- GI50 (LOX IMVI): 3.39 µM (inactive)
- GI50 (M19-MEL): 14.8 µM (inactive)
